The text below walks through data of US9403756B2, “N-phenyl anthranilic acid derivatives and uses thereof” (Ramot at Tel-Aviv University Ltd., priority 2007, dated 2016).

For one experiment, the target named is T1, KCNQ2 mutant R198A (Homo sapiens, UniProt O43526, R198A).
T1 construct: expressed in transfected cells
Briefly: KCNQ2 S4 mutant R198A. It is filed as cell-based. Particulars: RTG. From the text:
(§1) FIGS. 12A-F present the potentiating effect of NH29, an exemplary channel opener compound according to embodiments of the present invention, on selected KCNQ2 mutants. Shown are bar diagrams comparing the potentiating effect of NH29 on native KCNQ2 and KCNQ2 mutants, wherein the mutated amino acids are located at the S1-S2 helix region (FIG. 12A) or S4 helix region (FIG. 12D) and wherein the opener effect is expressed as percent of the control current in the absence of the opener. For comparison, marked as a green line, is the observed current increase of native KCNQ2 by NH29. FIGS. 12B 12C, 12E and 12F present representative traces recorded from CHO cell transfected with the KCNQ2 mutant S122A, S121A, L206C and R201A respectively, before and after external application of 25 μM of NH29 and wherein the membrane potential was stepped from −90 mV holding potential to −40 mV for 1.5 seconds pulse duration.
(§2) Voltage-clamp recordings in CHO cells were performed, using the whole-cell configuration of the patch-clamp technique. Signals were amplified using an Axopatch 200B patch-clamp amplifier (Molecular Devices, Sunnyvale, Calif.), sampled at 2 kHz and filtered at 800 Hz via a 4-pole Bessel low pass filter. […] Series resistances (3-13 MΩ) were compensated (75-90%) and periodically monitored.

A further experiment deals with T2, KCNQ2 mutant S121A (Homo sapiens, UniProt O43526, S121A).
T2 construct: expressed in transfected cells; host or cells: CHO cells
T2 sequence (O43526 whole entry S121A): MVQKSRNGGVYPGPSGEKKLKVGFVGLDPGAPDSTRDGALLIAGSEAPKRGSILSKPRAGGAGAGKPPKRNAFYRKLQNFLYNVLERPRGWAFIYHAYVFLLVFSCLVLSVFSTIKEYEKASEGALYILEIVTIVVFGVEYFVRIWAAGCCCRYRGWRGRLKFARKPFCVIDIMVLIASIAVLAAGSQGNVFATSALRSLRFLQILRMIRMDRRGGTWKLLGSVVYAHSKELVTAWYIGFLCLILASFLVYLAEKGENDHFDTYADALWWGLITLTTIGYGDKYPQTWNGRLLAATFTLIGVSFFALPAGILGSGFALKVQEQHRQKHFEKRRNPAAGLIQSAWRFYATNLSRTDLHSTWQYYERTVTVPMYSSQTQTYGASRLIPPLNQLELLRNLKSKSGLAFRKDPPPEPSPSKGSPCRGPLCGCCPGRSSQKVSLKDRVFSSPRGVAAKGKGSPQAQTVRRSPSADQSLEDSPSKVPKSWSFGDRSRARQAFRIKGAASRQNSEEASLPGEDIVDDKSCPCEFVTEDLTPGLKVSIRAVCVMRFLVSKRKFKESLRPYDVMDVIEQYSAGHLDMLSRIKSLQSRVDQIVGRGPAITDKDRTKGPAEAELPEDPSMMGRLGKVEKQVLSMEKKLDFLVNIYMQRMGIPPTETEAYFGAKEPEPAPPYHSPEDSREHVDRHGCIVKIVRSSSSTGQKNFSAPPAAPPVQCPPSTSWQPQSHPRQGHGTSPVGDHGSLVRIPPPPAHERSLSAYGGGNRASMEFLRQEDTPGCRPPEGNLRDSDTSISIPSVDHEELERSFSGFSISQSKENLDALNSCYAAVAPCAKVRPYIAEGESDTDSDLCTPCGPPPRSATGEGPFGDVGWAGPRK
Briefly: KCNQ2 S1-S2 mutant S121A in CHO cells. It is filed as cell-based. Particulars: RTG.
Text: as §1, §2

Another experiment concerns the target T3, KCNQ2 mutant W236L (Homo sapiens, UniProt O43526, W236L).
T3 construct: expressed in transfected cells; host or cells: CHO cells
Briefly: KCNQ2 mutant W236L in CHO cells. It is filed as cell-based. The conditions noted are these: 10 μM retigabine; 10 μM or 25 μM NH29. On the procedure: FIGS. 11A-F present the potentiating effect of NH29, an exemplary channel opener compound according to embodiments of the present invention, and Retigabine, on KCNQ2 mutants R207W and W236L mutant. Shown are representative traces recorded from CHO cell transfected with the KCNQ2 mutant R207W 0, 1 and 4-4.5 minutes after external application of 25 μM of NH29 and wherein the membrane potential was stepped from −90 mV holding potential to −20 mV for 1.5 seconds pulse duration (FIG. 11A), or 0, 1 and 4 minutes after external application of 25 μM of Retigabine wherein the membrane potential was stepped from −90 mV holding potential to −40 mV for 1.5 seconds pulse duration (FIG. 11B). FIGS. 11C and 11D show representative traces recorded from CHO cells transfected with the KCNQ2 mutant W236L 0, 1 and 6 minutes after external application of 25 μM of NH29 (FIG. 11C) or 0 and 5 minutes after external application of 10 μM of Retigabine (FIG. 11D) and wherein the membrane potential was stepped from −90 mV holding potential to −40 mV for 1.5 seconds pulse duration. […]
Voltage-clamp recordings in CHO cells were performed, using the whole-cell configuration of the patch-clamp technique. […] Series resistances (3-13 MΩ) were compensated (75-90%) and periodically monitored.

The next experiment addresses T4, KCNQ2 mutant R207W (Homo sapiens, UniProt O43526, R207W).
T4 construct: expressed in transfected cells; host or cells: CHO cells
It is filed as cell-based. Particulars: RTG (25 μM, −40 mV, FIG. 11B). The text has this: FIGS. 10A-D present the potentiating effect of NH29, an exemplary channel opener compound according to embodiments of the present invention, on wild type KCNQ2 (FIGS. 10A and 10B) and R207W mutant (FIGS. 10C and 10D) channels, as expressed in activation curve measurements, showing that NH29 left-shifts the activation curve (ΔV50) by −15.5 mV and −5.5 mV in the case of the wild-type and the mutant, respectively, and showing that NH29 enhances the current of wild-type and the mutant by about 3.4-fold (at −40 mV) and 1.5-fold (at −20 mV), respectively.
FIGS. 11A-F present the potentiating effect of NH29, an exemplary channel opener compound according to embodiments of the present invention, and Retigabine, on KCNQ2 mutants R207W and W236L mutant. Shown are representative traces recorded from CHO cell transfected with the KCNQ2 mutant R207W 0, 1 and 4-4.5 minutes after external application of 25 μM of NH29 and wherein the membrane potential was stepped from −90 mV holding potential to −20 mV for 1.5 seconds pulse duration (FIG. 11A), or 0, 1 and 4 minutes after external application of 25 μM of Retigabine wherein the membrane potential was stepped from −90 mV holding potential to −40 mV for 1.5 seconds pulse duration (FIG. 11B). FIGS. 11C and 11D show representative traces recorded from CHO cells transfected with the KCNQ2 mutant W236L 0, 1 and 6 minutes after external application of 25 μM of NH29 (FIG. 11C) or 0 and 5 minutes after external application of 10 μM of Retigabine (FIG. 11D) and wherein the membrane potential was stepped from −90 mV holding potential to −40 mV for 1.5 seconds pulse duration. FIG. 11E presents superimposed traces, showing the effects of Retigabine (RTG) and NH29 on the channel activity of KCNQ2 mutant W236L as measured at −40 mV; and FIG. 11F presents a bar diagram comparing the potentiating effect of NH29 and Retigabine on native KCNQ2 and KCNQ2 mutants, wherein the opener effect is expressed as percent of the control current in the absence of the opener.
(§3) Voltage-clamp recordings in CHO cells were performed, using the whole-cell configuration of the patch-clamp technique. Signals were amplified using an Axopatch 200B patch-clamp amplifier (Molecular Devices, Sunnyvale, Calif.), sampled at 2 kHz and filtered at 800 Hz via a 4-pole Bessel low pass filter. Data were acquired using pClamp 9.2 software (Molecular Devices) and an IBM compatible Pentium IV computer in conjunction with a DigiData 1322A interface (Molecular Devices). The patch pipettes were pulled from borosilicate glass (Warner Instrument Corp, USA) with a resistance of 2-5 MΩ. For K^+ current recordings in CHO cells, the intracellular pipette solution contained (in mM): 130 KCl, 1 MgCl2, 5 K2ATP, 5 EGTA, 10 HEPES, adjusted with KOH to pH 7.4 (290 mOsm). The extracellular solution contained (in mM): 140 NaCl, 4 KCl, 1.8 CaCl2, 1.2 MgCl2, 11 glucose, 5.5 HEPES, adjusted with NaOH to pH 7.4 (310 mOsm). Series resistances (3-13 MΩ) were compensated (75-90%) and periodically monitored.

The test system of experiment [1] is DRG neurons. The experiment in a line: Current-clamp recordings in cultured DRG neurons. The class given is cell-based, rat. On the procedure: For dorsal root ganglion (DRG) neuronal cultures, ganglia were dissected from 2-5 day-old Sprague-Dawley rats killed by decapitation. DRGs were placed in Hank's balanced saline solution (HBSS) and prepared by enzymatic dissociation. Briefly, after 30 minutes incubation in 5 mg/ml dispase, 2 mg/ml collagenase type 1A and 0.1 mg/ml DNase (Invitrogen/Gibco, Carlsbad, Calif.) in Ca^2+ and Mg^2+-free HBSS, the ganglia were mechanically triturated with a fire-polished glass Pasteur pipette. The ganglia were then centrifuged for 5 minutes at 80×g and resuspended in DMEM supplemented with 2 mM L-glutamine, 16.5 mM NaHCO3, 6 g/l glucose, 5 ml penicillin/streptomycin and 10% fetal calf serum.
For electrophysiological recording, dissociated neurons were plated on 13 mm glass coverslips, previously coated with poly-D-lysine (1 mg/ml) and laminin (10 μg/ml) and used at 1-2 days in culture.
For current-clamp recordings in primary cultured neurons, the patch pipettes were filled with (in mM): 135 KCl, 1 K2ATP, 1 MgATP, 2 EGTA, 1.1 CaCl2, 5 glucose, 10 HEPES, adjusted with KOH at pH 7.4 (315 mOsm). The external solution contained (in mM): 150 NaCl, 2.5 KCl, 2 CaCl2, 2 MgCl2, 15 glucose, 10 HEPES, adjusted with NaOH at pH 7.4 (325 mOsm). Recordings were sampled at 5 kHz and filtered at 2 KHz via a 4-pole Bessel low pass filter. A liquid junction potential of about −15.6 mV was measured between the intracellular and saline solutions and corrected on-line.
For evoking spike discharges, 75-200 pA square depolarizing current pulses were injected into neurons for 400 ms. For rheobase current measurements, 100-1100 pA square depolarizing current pulses were injected into neurons for 2 ms.

The next experiment deals with T5, Kv7.2/3 channels (Homo sapiens, UniProt O43525+O43526).
T5 construct: expressed in transfected cells; host or cells: CHO cells
The experiment in a line: Kv7.2/3 channels coexpressed in CHO cells, whole-cell patch-clamp. It is filed as cell-based. The conditions noted are these: for Activity: M-channel modulation, Kv7.2 and Kv7.3 subunits coexpressed in CHO cells; for EC50: read-out: EC50. On the procedure:
Chinese hamster ovary (CHO) cells were grown in Dulbecco's modified Eagle's medium (DMEM) supplemented with 2 mM glutamine, 10% fetal calf serum and antibiotics. Briefly, 40,000 cells seeded on poly-D-lysine-coated glass coverslips (13 mm diameter) in a 24-multiwell plate were transfected with pIRES-CD8 (0.5 μg) as a marker for transfection, and with Kv7.2 (0.5 μg) and Kv7.3 (0.5 μg) or TRPV1 […] or TRPV6 […].
For electrophysiology, transfected cells were visualized approximately 40 hours following transfection, using anti-CD8 antibody-coated beads. Transfection was performed using Fugene 6 (Roche, Indianapolis Ind., USA) according to the manufacturer's protocol.
as §3, with “Data were acquired using pClamp 9.2 software (Molecular Devices) and an IBM compatible Pentium IV computer in conjunction with a DigiData 1322A interface (Molecular Devices).” left out, “mOsm).” for “mOsm). Series resistances (3-13 MΩ) were compensated (75-90%) and periodically monitored.”
Data analysis was performed using the Clampfit program (pClamp 9.2, Molecular Devices), Microsoft Excel (Microsoft) and Prism 4.0 (GraphPad). Chord conductance (G) was calculated by using the following equation: G=I/(V−Vrev) where I corresponds to the current amplitude measured at the end of the pulse and Vrev, the calculated reversal potential. G was estimated at various test voltages V and then, normalized to a maximal conductance value, Gmax. Activation curves were fitted by one Boltzmann distribution: G/Gmax=1/{1+exp[(V50−V)/s]} where V50 is the voltage at which the current is half-activated and s is the slope factor. All data were expressed as mean±SEM. Statistically significant differences were assessed by Student's t-test. Analysis of sEPSCs and sIPSCs was done using the Clampfit program (pClamp 9.2, Molecular Devices) and included evaluation of the individual events as well as the average event amplitude and the integral of the event (total charge transfer).
In these studies, the impact of the compounds on M-channel activity was measured by the heterologous coexpression of Kv7.2 and Kv7.3 subunits in CHO cells.
Background: Patch clamp records ionic current or voltage across a cell membrane.

In experiment [2] the test system is DRG neurons. Briefly: Current-clamp recordings in cultured DRG neurons. It is filed as cell-based, rat. Particulars: 1 μM NH17; about 10-20 pA for 400 ms; control 1±0; n=5.
The subject of the next experiment is COX. The experiment in a line: Anti-COX activity in cell culture, CT26 and D122 cell lines (results in words). The class given is cell-based, mouse. Particulars: COX-dependent synthesis of PGE2. On the procedure: Mouse colon adenocarcinoma CT26 and mouse lewis lung carcinoma D122 cells were grown in DMEM (D122) or RPMI (CT26) supplemented with 10% fetal calf serum, 4% glutamine, 1% penicillin-streptomycin-nystatin and 3% non essential amino acids (D122) and were kept in a humidified 37° C. incubator with 5% CO2. For the COX activity assays, cells were grown onto 24 multi-well plates.
Before the assay, cells were washed with serum-free medium; then the tested compounds were added to the medium and incubated for 30 minutes at 37° C. after which 30 μM arachidonic acid were added and incubated for additional 20 minutes. At the end of the incubation period, 10 μM Indomethacin were added to stop the reaction and medium was transferred to another 24 multi-well plate for measuring PGE2 production by radioimmunoassay (DuPont-NEN; Boston Mass.) according to manufacturer protocol. Protein determination was assayed on scraped cells using the Bradford method (1976) [Bradford M. M. 1976. Anal. Biochem. 72:248-254], with BSA as a standard and was used to normalize the amount of PGE2 production.
The anti-COX activity of NH25, NH29 and NH30 was examined in Mouse colon adenocarcinoma CT26 and mouse lewis lung carcinoma D122 cell lines. Cells were incubated with each of the tested compounds and the level of the COX-dependent synthesis of PGE2 was quantified using radioimmunoassay techniques.

“Also recorded” adds a separate entry of the source. Read-outs that look alike come from different tables or passages of the source.

T4 sequence (O43526 whole entry R207W): as the sequence (O43526 whole entry S121A) above, with A121S, R207W counted along it
T1 sequence (O43526 whole entry R198A): as the sequence (O43526 whole entry S121A) above, with A121S, R198A counted along it
T3 sequence (O43526 whole entry W236L): as the sequence (O43526 whole entry S121A) above, with A121S, W236L counted along it

As for `CCOC(=O)Nc1ccc(NCc2ccc(F)cc2)cc1N` [retigabine, N-(2-amino-4-(4-fluorobenzylamino)-phenyl)carbamic acid ethyl ester, reference compound], the “fold increase of current amplitude” value at KCNQ2 mutant R198A was 4.4 fold; on KCNQ2 mutant R207W, “more than 6 fold”. For the same compound, the “fold increase of current” value on KCNQ2 mutant S121A is “more than 5 fold”. In addition, at KCNQ2 mutant W236L, the “effect of point mutation W236L on the opener effect” value is “completely abolished the opener effect”.
As a reminder, the EC50 is the midpoint of the concentration-response curve. In general, IC50 refers to the point on the concentration scale where inhibition reaches its midpoint. With `Cl.NCCOCCOC(=O)Cc1ccccc1Nc1c(Cl)cccc1Cl` [NH17], the “decrease in rheobase current” value with DRG neurons [1] (1 μM NH17) is on record as “about 300 pA”. For the same compound, the “depolarization of DRG membrane potential (ΔV)” value in the experiment on DRG neurons [1] (1 μM NH17, within 2 minutes) was “+7±1 mV”. Further, the “rheobase current to generate a single spike” value in the experiment on DRG neurons [1] (1 μM NH17, 2 ms injection, control 650±71 pA, n=6) worked out at 347±44 pA. Moreover, the inhibition at 25 µM on Kv7.2/3 channels (CHO, 25 μM, membrane potentials from −60 to +50 mV, read-out: inhibition of the Kv7.2/3 current) was > 90%. Further, on Kv7.2/3 channels, the Activity entry was “potent M-channel blockers; also recorded: Blocker”. The 50% effective concentration (EC50) on Kv7.2/3 channels (compounds whose Activity is Blocker) turned out to be 11 µM. The 50% inhibitory concentration (IC50) on Kv7.2/3 channels (recombinant Kv7.2/3 in CHO cells, read-out: IC50, blockade of the K+ currents) turned out to be 11 µM. In the experiment with DRG neurons [2], the “number of evoked spikes” value is on record as 12±2.
For the compound `O=C(Cc1cc([N+](=O)[O-])ccc1Nc1c(Cl)cccc1Cl)NCCO` [NH30], the Activity entry at Kv7.2/3 channels is recorded as “Opener”. Further, the “ΔV50 (mV)” value at Kv7.2/3 channels (left-shift of the activation curve of Kv7.2/3 channels) is given as −12.2 mV. Besides, the EC50 on Kv7.2/3 channels (opener potency, concentration-dependent left-shift in half-activation potential ΔV50, sigmoidal fit) worked out at 17 µM. Further, the anti-COX activity result in the experiment on COX is on record as “did not exhibit anti-COX activity”.
